Laboratory results published in US12037346B2, “Amino-substituted heteroaryls for treating cancers with EGFR mutations” (Nuvalent, Inc., priority 2021, dated 2024).

Assays:
Type in all cases: cell-based
[1] = target: Ba/F3 HER2-YVMA cells (HER2-A775_G776insYVMA) (Homo sapiens, UniProt P04626, DUP772-775, cells depend on it); assay: Cell proliferation assay (CellTiter-Glo), Ba/F3 HER2-YVMA; conditions: read-out: Ba/F3 HER2-YVMA cell proliferation IC50
Description: The gene encoding HER2-A775_G776insYVMA (“HER2-YVMA”) was synthesized at GeneRay, cloned into the retroviral construct pMSCV-puro (Biovector), and packaged into retroviral particles. The virus was used to infect Ba/F3 cells (RIKEN) at multiplicity of infection=1 or 10 for 1 day. Infected cells were rescued in media (RPMI-1640 with 10% fetal bovine serum and 1% streptomycin and penicillin) supplemented with mouse IL-3 (10 ng/mL) for 2 days, and stable cell lines were selected by IL-3 withdrawal and puromycin (0.8 μg/mL) for 7 days. Monoclones were selected by single-cell dilution in IL-3-free medium containing puromycin ([…]). Transformation of desired genes was confirmed by Sanger sequencing and western blot using the following antibody: HER2 (CST #2242).
(§1) Ba/F3 cells were plated at 1,000 cells/well (40 μL), or NCI-H1781 or A431 cells were plated at 2,000 cells/well (40 μL), in a 384-well plate for 1 day. Test compounds (40 nL) were then added in a 3-fold dilution series using the TECAN EV0200 liquid handler and incubated for 48 hours (“2 days”), 72 hours (“3 days”), or 48 hours followed by renewal of compound solutions and further incubation for 72 hours (“2 days/3 days”). The 72-hour assay was necessary for NCI-H1781 cells, which are slow-growing, and the resupply of fresh compounds on day 3 obviated the potential confounding effects arising from compound degradation in cell media over 72 hours. Plates were equilibrated at room temperature for 15 minutes followed by addition of 40 μL CellTiter-Glo reagent (Promega). Luminescence was measured on a plate reader. Half-maximal inhibitory concentration (IC50) was calculated from percent inhibition and inhibitor concentration using four-parameter logistic regression. […] In these cases, the regression curve was drawn only for the first inflexion to accurately measure on-target growth inhibitory effect.
(§2) Ba/F3, NCI-H1781, and A431 proliferation is driven by the oncogenes in the same way that cancer cell proliferation in humans is driven by the expression of equivalent oncogenes.

[2] = target: T1, wild-type EGFR (A431 cells) (Homo sapiens, UniProt P00533); assay: Cellular phosphorylation assay, pEGFR (phospho-EGFR Tyr1068 AlphaLISA) in A431; conditions: compound incubated for 5 hours, EGF (30 ng/mL) for 15 minutes
T1 construct: A431 bears amplification of the wild-type EGFR gene; endogenous in cells; host or cells: A431
T1 sequence (P00533 25-1210): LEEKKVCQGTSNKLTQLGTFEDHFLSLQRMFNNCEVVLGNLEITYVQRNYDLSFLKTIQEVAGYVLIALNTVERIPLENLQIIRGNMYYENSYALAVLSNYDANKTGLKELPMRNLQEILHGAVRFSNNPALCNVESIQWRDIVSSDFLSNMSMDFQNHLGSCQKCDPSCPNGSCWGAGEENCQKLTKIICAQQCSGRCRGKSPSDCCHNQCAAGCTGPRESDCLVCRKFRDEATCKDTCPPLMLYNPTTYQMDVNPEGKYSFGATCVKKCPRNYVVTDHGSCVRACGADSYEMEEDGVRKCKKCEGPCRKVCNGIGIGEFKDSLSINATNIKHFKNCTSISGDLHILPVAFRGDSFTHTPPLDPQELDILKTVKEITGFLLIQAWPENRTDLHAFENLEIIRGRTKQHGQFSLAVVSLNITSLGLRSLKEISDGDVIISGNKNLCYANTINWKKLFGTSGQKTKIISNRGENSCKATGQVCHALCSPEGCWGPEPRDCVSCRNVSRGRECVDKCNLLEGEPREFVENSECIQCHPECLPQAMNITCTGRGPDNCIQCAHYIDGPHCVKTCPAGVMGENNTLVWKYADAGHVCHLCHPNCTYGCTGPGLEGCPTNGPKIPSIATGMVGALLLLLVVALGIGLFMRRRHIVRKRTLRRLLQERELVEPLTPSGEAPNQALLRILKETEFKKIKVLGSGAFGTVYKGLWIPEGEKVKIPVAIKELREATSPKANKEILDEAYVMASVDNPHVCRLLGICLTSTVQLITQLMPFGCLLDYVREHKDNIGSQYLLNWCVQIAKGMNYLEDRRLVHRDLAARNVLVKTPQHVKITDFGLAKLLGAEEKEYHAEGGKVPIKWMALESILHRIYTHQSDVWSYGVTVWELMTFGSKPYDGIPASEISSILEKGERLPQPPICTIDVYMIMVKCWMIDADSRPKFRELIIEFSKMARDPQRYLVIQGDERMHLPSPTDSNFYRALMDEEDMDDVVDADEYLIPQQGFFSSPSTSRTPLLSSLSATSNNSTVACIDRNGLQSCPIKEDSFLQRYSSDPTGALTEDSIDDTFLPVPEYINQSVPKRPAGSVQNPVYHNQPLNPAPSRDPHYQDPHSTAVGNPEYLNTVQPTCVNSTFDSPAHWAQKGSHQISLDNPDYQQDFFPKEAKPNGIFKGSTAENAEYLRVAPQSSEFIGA
Description: (§3) Besides Ba/F3s, two commercially available cell lines were also used. NCI-H1781 is a HER2 exon20 insertion cell line bearing HER2-A775_G776insV-G776C. A431 bears amplification of the wild-type EGFR gene.
(§4) Ba/F3 cells were plated at 50,000 cells/well (40 μL), or NCI-H1781 cells or A431 cells were plated at 12,500 cells/well (40 μL), in a 384-well plate for 1 day. Test compounds (40 nL) were then added in a 3-fold dilution series using the TECAN EV0200 liquid handler and incubated for 5 hours. Only for pEGFR analysis in A431, the cells were briefly stimulated with EGF (30 ng/mL) for 15 minutes. Media were removed using Apricot Designs. Phosphoproteins were analyzed using the phospho-EGFR Tyr1068 AlphaLISA kit (“pEGFR”; PerkinElmer #ALSU-PEGFR-B10K;) phospho-ERK Thr202/Tyr204 AlphaLISA kit (“pERK”; PerkinElmer #ALSU-PERK-A10K) or the phospho-ErbB2 Tyr1221/1222 AlphaLISA kit (“pHER2”; PerkinElmer #ALSU-PEB2-A10K;) according to the manufacturer's instructions. Briefly, cells were lysed with lysis buffer (10 μL) containing protease-inhibitor and phosphatase-inhibitor cocktails. The lysates were transferred into a new optical plate, incubated with the acceptor mix (5 μL) for 1.5-2 hours at room temperature in darkness, and then mixed with the donor mix (5 μL) overnight in darkness. Fluorescence was measured on a plate reader using the appropriate AlphaLISA settings. Half-maximal inhibitory concentration (IC50) was calculated from percent inhibition and inhibitor concentration using four-parameter logistic regression. […]

[3] = system: A431 cells (amplification of the wild-type EGFR gene), phospho-ERK Thr202/Tyr204; assay: Cellular phosphorylation assay, pERK (phospho-ERK Thr202/Tyr204 AlphaLISA) in A431; conditions: Homo sapiens, A-431, compound incubated for 5 hours
Description: as §3, §4

[4] = system: NCI-H1781 cells (HER2-A775_G776insV-G776C); assay: Cell proliferation assay (CellTiter-Glo), NCI-H1781; conditions: first inflexion of biphasic curve
Description: as §3, §1, §2

Chain of Ba/F3 HER2-YVMA cells (HER2-A775_G776insYVMA) (P04626 with tags, fused parts or gaps DUP772-775): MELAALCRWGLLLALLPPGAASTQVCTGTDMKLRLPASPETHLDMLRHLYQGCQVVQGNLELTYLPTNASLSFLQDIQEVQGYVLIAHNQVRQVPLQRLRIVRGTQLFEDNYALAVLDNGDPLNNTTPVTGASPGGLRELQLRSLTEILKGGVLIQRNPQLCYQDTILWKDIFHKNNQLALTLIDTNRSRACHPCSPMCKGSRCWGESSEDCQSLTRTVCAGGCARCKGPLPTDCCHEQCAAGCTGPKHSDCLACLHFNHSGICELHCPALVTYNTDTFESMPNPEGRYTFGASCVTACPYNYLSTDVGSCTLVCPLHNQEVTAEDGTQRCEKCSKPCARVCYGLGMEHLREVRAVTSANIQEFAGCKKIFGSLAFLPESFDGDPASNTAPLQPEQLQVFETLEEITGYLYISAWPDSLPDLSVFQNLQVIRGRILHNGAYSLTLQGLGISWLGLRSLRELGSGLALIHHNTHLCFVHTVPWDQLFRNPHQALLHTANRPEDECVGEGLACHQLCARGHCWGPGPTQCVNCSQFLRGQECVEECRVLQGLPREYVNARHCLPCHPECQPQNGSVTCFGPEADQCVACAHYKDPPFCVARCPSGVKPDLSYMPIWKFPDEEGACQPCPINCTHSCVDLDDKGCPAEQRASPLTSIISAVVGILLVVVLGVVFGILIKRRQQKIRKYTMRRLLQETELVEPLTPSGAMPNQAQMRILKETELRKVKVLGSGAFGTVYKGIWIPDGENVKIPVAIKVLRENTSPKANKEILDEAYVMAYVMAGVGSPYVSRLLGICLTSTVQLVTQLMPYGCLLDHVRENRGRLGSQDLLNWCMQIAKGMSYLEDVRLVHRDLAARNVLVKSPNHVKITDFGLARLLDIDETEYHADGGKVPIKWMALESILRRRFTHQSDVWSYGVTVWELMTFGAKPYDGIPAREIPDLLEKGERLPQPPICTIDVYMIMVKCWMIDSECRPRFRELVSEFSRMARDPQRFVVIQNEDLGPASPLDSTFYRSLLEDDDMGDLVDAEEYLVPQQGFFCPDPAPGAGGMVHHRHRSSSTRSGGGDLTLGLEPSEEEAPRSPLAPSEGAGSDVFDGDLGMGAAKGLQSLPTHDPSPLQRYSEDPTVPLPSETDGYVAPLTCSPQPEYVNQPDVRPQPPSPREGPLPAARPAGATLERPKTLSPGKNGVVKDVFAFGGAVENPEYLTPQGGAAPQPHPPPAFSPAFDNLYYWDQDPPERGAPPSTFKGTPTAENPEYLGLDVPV

| Compound | GI50 [1] [µM] | IC50 [2] [µM] | IC50 [3] [µM] | IC50 [4] [µM] |
| --- | --- | --- | --- | --- |
| C=CC(=O)N1CCN(c2ncc3ncnc(Nc4ccc(Oc5ccn6ncnc6c5)c(C)c4F)c3n2)[C@H](C)[C@@H]1C (relative stereo) [Example 40] | < 0.1 | < 0.1 | < 0.1 | < 0.1 |
| C=CC(=O)N1CCN(c2ncc3ncnc(Nc4ccc(Oc5ccn6ncnc6c5)c(C)c4F)c3n2)C[C@H]1C [Example 32] | < 0.1 | – | 0.5 to 1 | < 0.1 |
| C=CC(=O)N1C[C@@H](C)N(c2ncc3ncnc(Nc4ccc(Oc5ccn6ncnc6c5)c(C)c4F)c3n2)C[C@H]1C [Example 44] | 0.1 to 0.5 | ≥ 1 | – | 0.1 to 0.5 |
| C=CC(=O)N1CCN(c2ncc3ncnc(Nc4ccc(Oc5ccn6ncnc6c5)c(C(F)(F)F)c4F)c3n2)C[C@H]1C [Example 39] | 0.1 to 0.5 | ≥ 1 | ≥ 1 | 0.5 to 1 |
| C=CC(=O)N1CC=C(c2ccc3ncnc(Nc4ccc(Oc5cc(C)n6ncnc6c5)c(C)c4)c3n2)CC1 [Example 17] | < 0.1 | ≥ 1 | ≥ 1 | < 0.1 |
| C=CC(=O)N1CCN(c2ncc3ncnc(Nc4cc(C)c(Oc5ccn6ncnc6c5)cc4F)c3n2)C[C@@H]1C [Example 36] | 0.1 to 0.5 | ≥ 1 | ≥ 1 | 0.1 to 0.5 |
| C=CC(=O)N1CCN(c2ccc3ncnc(Nc4ccc(Oc5ccn6ncnc6c5)c(C)c4)c3c2F)CC1 [Example 29] | < 0.1 | ≥ 1 | – | < 0.1 |
| C=C(F)C(=O)N1CC=C(c2ccc3ncnc(Nc4ccc(Oc5ccn6ncnc6c5)c(C)c4)c3n2)CC1 [Example 31] | ≥ 1 | ≥ 1 | ≥ 1 | ≥ 1 |
| C=CC(=O)N1CCN(c2ccc3ncnc(Nc4ccc(Oc5ccn6ncnc6c5)c(C)c4)c3n2)C(=O)C1 [Example 8] | < 0.1 | ≥ 1 | ≥ 1 | < 0.1 |
| C=CC(=O)N1CC=C(c2ncc3ncnc(Nc4ccc(Oc5ccn6ncnc6c5)c(C)c4F)c3n2)CC1 [Example 37] | < 0.1 | 0.5 to 1 | ≥ 1 | < 0.1 |
| C=CC(=O)N1CCN(c2ncc3ncnc(Nc4cc(C)c(Oc5ccn6ncnc6c5)cc4F)c3n2)[C@@H](C)C1 [Example 35] | < 0.1 | ≥ 1 | ≥ 1 | 0.1 to 0.5 |
| C=CC(=O)N1C[C@@H]2CC[C@H]1CN2c1ncc2ncnc(Nc3ccc(Oc4ccn5ncnc5c4)c(C)c3F)c2n1 [Example 41] | < 0.1 | < 0.1 | < 0.1 | < 0.1 |
| C=CC(=O)N1CC=C(c2ncc3ncnc(Nc4cc(C)c(Oc5ccn6ncnc6c5)cc4F)c3n2)CC1 [Example 38] | 0.1 to 0.5 | ≥ 1 | – | 0.1 to 0.5 |
| C=CC(=O)N1CC=C(c2ccc3ncnc(Nc4cc(C)c(Oc5ccn6ncnc6c5)cc4F)c3n2)CC1 [Example 11] | < 0.1 | ≥ 1 | – | 0.1 to 0.5 |
| C=CC(=O)N1CCN(c2ccc3ncnc(Nc4ccc(Oc5ccn6c(C)cnc6c5)c(C)c4F)c3c2F)C[C@H]1C [Example 75] | < 0.1 | 0.5 to 1 | 0.1 to 0.5 | – |
| C=CC(=O)N1CCN(c2ncc3ncnc(Nc4ccc(Oc5ccc6c(c5)ncn6C)cc4F)c3n2)CC1 [Example 67] | < 0.1 | ≥ 1 | 0.5 to 1 | – |
| C=CC(=O)N1CC=C(c2ncc3ncnc(Nc4ccc(Oc5ccn6ncnc6c5)c(C)c4F)c3n2)C[C@@H]1C [Example 42] | < 0.1 | ≥ 1 | – | < 0.1 |
| C=CC(=O)N1CC=C(c2ccc3ncnc(Nc4ccc(Oc5ccn6ccnc6c5)c(C)c4)c3n2)CC1 [Example 70] | < 0.1 | 0.1 to 0.5 | 0.1 to 0.5 | – |
| C=CC(=O)N1CCN(c2ncc3ncnc(Nc4cc(C)c(Oc5ccn6ncnc6c5)cc4F)c3n2)[C@H](C)C1 [Example 34] | 0.1 to 0.5 | ≥ 1 | – | 0.1 to 0.5 |
